These results are taken from patent US11484591B2, “Chemoprevention using controlled-release formulations of anti-interleukin 6 agents, synthetic vitamin A analogues or metabolites, and estradiol metabolites” (OHIO STATE INNOVATION FOUNDATION, priority 2016, dated 2022).

Each structure is given as a SMILES string. Converted amounts (≈) assume the structure as drawn. “Also recorded” adds a separate entry of the source.

One data set has as its system apoptosis. Particulars: reference 21; cited from earlier work.
A further data set is described as follows: Fenretinide solubility. It counts as physicochemical.
Data set [1] in a line: 4-HPR release from PLGA implants, tumor and sera levels (UPLC/UV). In kind it is in vivo, nude mice. The text has this: Determination of 4-HPR tumor levels entailed recording tumor wet mass, addition of internal standard (acitretin) and RIPA lysis buffer, followed by homogenization, addition of acetonitrile and centrifugation. Acetretin percent recovery was compared to a RIPA buffer/acetonitrile extraction control solution spiked with equivalent amount of acetretin and 4-HPR. Sera preparation entailed addition of acetretin and acetonitrile, sonication, followed by centrifugation.
SCC2095sc cells [10^6 cells suspended in 100 μl Matrigel (Corning Life Sciences, Corning, N.Y.)] were subcutaneously injected in the flanks of 6 week old male nude mice (n=6 per treatment group). Tumor measurements were recorded daily with calipers (greatest length and greatest width) and final tumor volumes calculated via tumor volume V=(length×width)×½. Treatment groups consisted of: 1) control (PBS injections)+blank (no drug) PLGA implants, 2) 2-ME (1 μg/100 μl PBS, b.i.d.)+blank PLGA implant, 3) 4-HPR releasing PLGA implant+PBS injections, 4) TOC q.d. (0.3 μg/100 μl PBS)+PLGA blank implant, 5) 2-ME (1 μg/100 μl PBS, b.i.d.)+4-HPR releasing PLGA implant, 6) 2-ME (1 μg/100 μl PBS, b.i.d.)+TOC q.d. (0.3 μg/100 μl PBS)+blank PLGA implant, 7) TOC q.d. (0.3 μg/100 μl PBS)+4-HPR releasing PLGA implant, 8) 2-ME (1 μg/100 μl PBS, b.i.d.)+TOC q.d. (0.3 μg/100 μl PBS)+4-HPR releasing PLGA implant. By day 14 post injection, all mice had measurable tumors and treatment began on day 15. […] Pretreatment mean tumor volumes therefore varied among treatment groups. PLGA implants (via trocar) and injections were placed in the center of the tumor. At day 28 post OSCC xenograft placement final tumor measurements were obtained, the mice were euthanized and OSCC tumors along with lung, liver and sera were harvested for pharmacokinetic, histologic and IHC analyses (Ki-67, cleaved caspase-3 and involucrin). Image analyses of the nuclear stains (Ki-67 and cleaved caspase 3) were conducted using Image-Pro Plus 6.2 software (Media Cybernetics, Rockville, Md.).

The conditions of data set [2]: cited from earlier work.
A further data set deals with STAT3. Nature of the data set: STAT3 cytosolic phosphorylation and nuclear translocation, immunoblots of OSCC cell lines. In kind it is cell-based, human. On the procedure: FIGS. 2A, 2B, and 2C show the treatment effects of fenretinide (4-HPR, 5 μM), 2-methoxyestradiol (2-ME, 2.5 μM) and the STAT3 inhibitor LY5 (0.5 μM) on STAT3 phosphorylation and nuclear translocation. (A) (JSCC1 cells) (B) (JSCC2 cells) and (C) (JSCC3 cells) were evaluated. Cytosolic and nuclear proteins were harvested from sera deprived JSCC1 and JSCC2 cell lines following 24 h of treatment (5 μM 4-HPR, 2.5 μM 2-ME, or 0.5 μM LY5) or vehicle (0.1% DMSO) control. […] As the JSCC3 cells don't constitutively express pSTAT3, these cells underwent 24 h stimulation in base medium supplemented with 10 ng/mL of IL-6 or 5 ng/mL of TGF-α, with or without 4-HPE, 2-ME or LY5 treatment, followed by harvest. […] (n=3, p<0.05, Wilcoxon matched pairs signed rank test).
Dosing levels were determined by concurrent proliferation and viability studies in conjunction with literature values. The cells in every treatment group were then stimulated for 20 minutes with: vehicle (1 μl ddH2O), 50 ng/ml EGF, 50 ng/ml VEGF, or 50 ng/ml EGF+50 ng/ml VEGF, followed by standard immunoblotting and data normalization relative to GAPDH. […] Immunoblot images were captured (Li-Cor Odyssey imager) and analyzed (Li-Cor Image Studio, Version 4.0) to depict effects on treatment on phosphorylation relative to respective levels of GAPDH. […]

As a reminder, the solubility is the concentration that dissolves in the medium under given conditions. Read a low solubility as a poorly soluble substance. The log P is a log measure of how a compound divides between an organic and an aqueous phase. For `CC1=C(/C=C/C(C)=C/C=C/C(C)=C/C(=O)Nc2ccc(O)cc2)C(C)(C)CCC1` [4-HPR, 4-hydroxy(phenyl)retinamide], the apoptosis-inducing concentration in the data set on apoptosis is 10 µM. Besides, the water solubility result in the data set “Fenretinide solubility” was “below HPLC detection limit”. Moreover, in “Fenretinide solubility” (PBS+0.084% Tween 80, same as in bovine serum), the solubility was found to be 21 µg/mL (≈ 53.6 µM). Besides, in data set [1] (4-HPR or its metabolites, any animals), the “detectable levels in the sera” value is “absence of any detectable levels”. In addition, the concentration at 28 days post xenograft placement (treatment began on day 15) in data set [1] (male, nude, mouse, serum, all mice that received PLGA implants, below LLOQ) was less than 50 ng/mL. Moreover, the “log P” value in data set [2] is 8.03. Moreover, in the data set with STAT3 (JSCC1 and JSCC2 cells, 5 μM, 24 h), the “constitutive STAT3 phosphorylation and pSTAT3 nuclear translocation” value is “suppressed; also recorded: significantly reduced”. The “suppression of STAT3 activation and nuclear translocation relative to STAT3 inhibitor LY5” value with STAT3 (JSCC1 cells, 5 μM 4-HPR vs 0.5 μM LY5) is “appreciably more effectively”.
